Converted amounts (≈) assume the structure as drawn. “And” between values parts separate entries of the source, which are not always exact repeats. Identical values can stand only once.
What was measured:
[1] = test system: M. smegmatis (ATCC 14468); test: Microtiter broth dilution MIC against M. smegmatis (ATCC 14468); type: cell-based; details: Mycolicibacterium smegmatis, ATCC14468, 72 h, 37 °C, MTT
[2] = test system: human diploid embryonic lung cell line MRC-5; test: XTT cytotoxicity assay on MRC-5 cells; type: cell-based; details: XTT
Description: In order to assess the cytotoxicity of these novel quinolone derivatives, the effect on the viability of a human lung fibroblast cell line MRC-5, was measured using XTT proliferation assay. […] In addition, the position of the triple bond in the side chain seems to have a significant influence on cytotoxcity which is increased in compounds with a triple bond more distant to the quinolone nucleus. This can be concluded by comparing results of 8l, 8n, 8p, and 8r having similar antimycobacterial activity on M. smegmatis but different cytotoxcity depending on triple bond position.
The cytotoxic activity of the synthetic compounds was determined by means of an XTT Cell Proliferation Kit II (Roche Diagnostics, Mannheim, Germany) using the human diploid embryonic lung cell line MRC-5 [11]. The quinolone derivatives were tested at concentrations of 100, 60, 30 and 10 µM in triplicate and the percentage of viable cells at each concentration was determined by comparing with the control.

M. smegmatis mc^2155 = test: Broth dilution MIC against M. smegmatis mc^2155; type: cell-based; details: Mycolicibacterium smegmatis, 72 h
M. fortuitum (ATCC 6841) = test: Broth dilution MIC against M. fortuitum; type: cell-based; details: Mycolicibacterium fortuitum, ATCC6841, 72 h
M. phlei (ATCC 11758) = test: Broth dilution MIC against M. phlei; type: cell-based; details: Mycolicibacterium phlei, ATCC11758, 72 h

SMILES	MIC [1]	Metabolic active MRC-5 cells (%) ([2]; 10 µM)	Metabolic active MRC-5 cells (%) ([2]; 30 µM)	Metabolic active MRC-5 cells (%) ([2]; 60 µM)	Metabolic active MRC-5 cells (%) ([2]; 100 µM)	melting point [°C]	MIC (M. smegmatis mc^2155)	MIC (M. fortuitum (ATCC 6841))	MIC (M. phlei (ATCC 11758))	Metabolic active MRC-5 cells (%) ([2]; 0.12 µM (positive control))
CCCCCCCCC#Cc1cc(=O)c2ccccc2n1CCC [Compound 8h, 1-(n-Propyl)-2-(1'-decynyl)-4(1H)-quinolone]	4 µg/mL and 12.4 µM	103 ± 1.38	101 ± 2.47	39.5 ± 3.59	14.1 ± 7.83	–	–	–	–	–
CCCCCCCCCCCCCC#Cc1cc(=O)c2ccccc2n1C [Compound 8t, 1-Methyl-2-(1'-pentadecynyl)-4(1H)-quinolone]	128 µg/mL and 351 µM	100 ± 1.01	100 ± 1.38	98.8 ± 1.28	93.8 ± 0.96	–	–	–	–	–
O=c1cc(/C=C/CCCCCCCCCCBr)n(C2CC2)c2ccccc12 [Compound 18a, 1-Cyclopropyl-2-[(E)-12-bromodec-1'-enyl]-4(1H)-quinolone]	8 µg/mL and 18.6 µM	–	–	–	–	85 to 87	–	–	–	–
CCCCCCCCCCC/C=C/c1cc(=O)c2ccccc2n1C1CC1 [Compound 22a, 1-Cyclopropyl-2-[(E)-1′-tridecenyl]-4(1H)-quinolone]	128 µg/mL and 351 µM	–	–	–	–	86 to 88	–	–	–	–
Cn1c(/C=C/CCCCCCCCCCCBr)cc(=O)c2ccccc21 [Compound 19b, 1-Methyl-2-[(E)-13-bromotridec-1'-enyl)-4(1H)-quinolone]	0.5 µg/mL (≈ 1.19 µM)	–	–	–	–	–	1 µg/mL and 2.4 µM	1 µg/mL and 2.4 µM	1 µg/mL and 2.4 µM	–
CCCCCCCC#CCCc1cc(=O)c2ccccc2n1CCC [Compound 8f, 1-(n-Propyl)-2-(3'-undecynyl)-4(1H)-quinolone]	4 µg/mL and 11.9 µM	100 ± 1.05	101 ± 1.28	91.7 ± 2.77	70.9 ± 8.50	–	–	–	–	–
CC[C@]1(O)C[C@@H]2CN(CCc3c([nH]c4ccccc34)[C@@](C(=O)OC)(c3cc4c(cc3OC)N(C)[C@H]3[C@@](O)(C(=O)OC)[C@H](OC(C)=O)[C@]5(CC)C=CCN6CC[C@]43[C@@H]65)C2)C1 [Vinblastin, reference compound]	–	–	–	–	–	–	–	–	–	51.5 ± 2.36
Cn1c(/C=C/CCCCCCCCCCBr)cc(=O)c2ccccc21 [Compound 19a, 1-Methyl-2-[(E)-12-bromodec-1'-enyl]-4(1H)-quinolone]	0.5 µg/mL (≈ 1.24 µM)	–	–	–	–	–	1 µg/mL and 2.5 µM	1 µg/mL and 2.5 µM	1 µg/mL and 2.5 µM	–
CCCCCCC#CCCc1cc(=O)c2ccccc2n1C [Compound 8a, 1-Methyl-2-(3′-decynyl)-4(1H)-quinolone]	32 µg/mL and 108 µM	100 ± 1.05	98.4 ± 1.07	97.5 ± 0.74	89.3 ± 2.94	–	–	–	–	–
CCCCCCC#CCCc1cc(=O)c2ccccc2n1CCC [Compound 8c, 1-(n-Propyl)-2-(3′-decynyl)-4(1H)-quinolone]	8 µg/mL and 24.8 µM	103 ± 1.22	102 ± 0.42	100 ± 0.55	100 ± 1.45	–	–	–	–	–
CCCCCCCCCCCC/C=C/c1cc(=O)c2ccccc2n1C1CC1 [Compound 22b, 1-Cyclopropyl-2-[(E)-1′-tetradecenyl]-4(1H)-quinolone]	128 µg/mL and 338 µM	–	–	–	–	96 to 98	–	–	–	–
CCCCCCCCC#CCCc1cc(=O)c2ccccc2n1C [Compound 8j, 1-Methyl-2-(3'-dodecynyl)-4(1H)-quinolone]	4 µg/mL and 12.4 µM	97.6 ± 1.03	96.7 ± 1.49	95.1 ± 0.81	95.84 ± 0.96	–	–	–	–	–
CCCCCCC#CCCc1cc(=O)c2ccccc2n1CC [Compound 8b, 1-Ethyl-2-(3'-decynyl)-4(1H)-quinolone]	16 µg/mL and 51.8 µM	102 ± 0.85	100 ± 0.73	98.4 ± 0.77	85.7 ± 1.96	–	–	–	–	–
CCCCCCCCC#Cc1cc(=O)c2ccccc2n1CCCC [Compound 8i, 1-(n-Butyl)-2-(1'-decynyl)-4(1H)-quinolone]	4 µg/mL and 11.9 µM	103 ± 3.13	101 ± 0.81	67.2 ± 9.90	28.7 ± 8.95	–	–	–	–	–
CCCCCCCC#CCCc1cc(=O)c2ccccc2n1CC [Compound 8e, 1-Ethyl-2-(3'-undecynyl)-4(1H)-quinolone]	8 µg/mL and 24.8 µM	102 ± 1.05	101 ± 1.42	100 ± 0.56	100 ± 1.05	–	–	–	–	–
CC[C@@H](CO)NCCN[C@@H](CC)CO [Ethambutol, reference compound]	2 µg/mL and 9.8 µM	–	–	–	–	–	4 µg/mL and 19.6 µM	8 µg/mL and 39.2 µM	4 µg/mL and 19.6 µM	–
O=c1cc(/C=C/CCCCCCCCCCCBr)n(C2CC2)c2ccccc12 [Compound 18b, 1-Cyclopropyl-2-[(E)-13-bromotridec-1'-enyl)-4(1H)-quinolone]	8 µg/mL and 18.1 µM	–	–	–	–	61 to 63	–	–	–	–
CCCCCCCCC#Cc1cc(=O)c2ccccc2n1CC [Compound 8g, 1-Ethyl-2-(1'-decynyl)-4(1H)-quinolone]	2 µg/mL and 6.5 µM	101 ± 0.97	98.7 ± 2.97	56.5 ± 2.03	12.1 ± 4.79	–	4 µg/mL and 12.9 µM	8 µg/mL and 25.9 µM	4 µg/mL and 12.9 µM	–
CCCCCCCC#CCCc1cc(=O)c2ccccc2n1C [Compound 8d, 1-Methyl-2-(3'-undecynyl)-4(1H)-quinolone]	8 µg/mL and 25.9 µM	101 ± 1.08	99.8 ± 0.52	98.7 ± 0.8	97.3 ± 0.66	–	–	–	–	–
